Data reported in the supplement of paper PMC10307832.

How the values were obtained:
Experiment in all cases: relative viability (nuclei count vs DMSO), 5 days (fraction); higher = more cells survive
NCI-H1703 = system: NCI-H1703
In short: (§1)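 Medians of duplicate plates are given as relative viability. That measure is the nuclei count in treated wells divided by the count in vehicle wells. Counts were taken on 4× images of lung cancer cell lines in 1536-well plates, 5 days after pin-tool dosing the day after seeding with one drug alone or a fixed anchor-drug dose plus five library-drug doses (not always all listed) in √10 steps.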

IA-LM = system: IA-LM
In short: as §1

NCI-H1299 = system: NCI-H1299
In short: as §1

Calu-6 = system: Calu-6
In short: as §1

A549 = system: A549
In short: as §1

EBC-1 = system: EBC-1
In short: as §1

NCI-H1437 = system: NCI-H1437
In short: as §1

CC(C)Oc1cc(Nc2nc(N[C@@H](C)c3ccc(F)cn3)ncc2Cl)n[nH]1 [AZ23] + C[C@]1(O)C[C@@H](c2nc(-c3ccc4ccc(-c5ccccc5)nc4c3)c3c(N)nccn32)C1 [Linsitinib] (partner 1 µM)
relative viability (NCI-H1703; first compound 0.03162 µM): 0.647
relative viability (NCI-H1703; first compound 0.3162 µM): 0.592
relative viability (IA-LM; first compound 0.01 µM): 0.601
relative viability (IA-LM; first compound 0.03162 µM): 0.386
relative viability (IA-LM; first compound 0.3162 µM): 0.627
relative viability (NCI-H1299; first compound 0.01 µM): 0.977
relative viability (NCI-H1299; first compound 0.03162 µM): 0.99
relative viability (NCI-H1299; first compound 0.3162 µM): 1.09
relative viability (Calu-6; first compound 0.03162 µM): 1.01
relative viability (Calu-6; first compound 0.3162 µM): 0.953
relative viability (A549; first compound 0.01 µM): 0.659
relative viability (A549; first compound 0.03162 µM): 0.572
relative viability (A549; first compound 0.3162 µM): 0.701
relative viability (EBC-1; first compound 0.01 µM): 1.1
relative viability (EBC-1; first compound 0.03162 µM): 0.836
relative viability (EBC-1; first compound 0.3162 µM): 1.07
relative viability (NCI-H1437; first compound 0.01 µM): 1.07
relative viability (NCI-H1437; first compound 0.03162 µM): 1.18
relative viability (NCI-H1437; first compound 0.3162 µM): 1.28

CC(C)Oc1cc(Nc2nc(N[C@@H](C)c3ccc(F)cn3)ncc2Cl)n[nH]1 [AZ23] + Cc1nc(NC(=O)N2CCC[C@H]2C(N)=O)sc1-c1ccnc(C(C)(C)C(F)(F)F)c1 [Alpelisib] (partner 2 µM)
relative viability (NCI-H1703; first compound 0.03162 µM): 0.434
relative viability (NCI-H1703; first compound 0.3162 µM): 0.308
relative viability (IA-LM; first compound 0.01 µM): 0.729
relative viability (IA-LM; first compound 0.03162 µM): 0.98
relative viability (IA-LM; first compound 0.3162 µM): 0.943
relative viability (NCI-H1299; first compound 0.01 µM): 1.16
relative viability (NCI-H1299; first compound 0.03162 µM): 1.09
relative viability (NCI-H1299; first compound 0.3162 µM): 1.23
relative viability (Calu-6; first compound 0.03162 µM): 1.12
relative viability (Calu-6; first compound 0.3162 µM): 1.11
relative viability (A549; first compound 0.01 µM): 0.738
relative viability (A549; first compound 0.03162 µM): 0.758
relative viability (A549; first compound 0.3162 µM): 0.716
relative viability (EBC-1; first compound 0.01 µM): 0.826
relative viability (EBC-1; first compound 0.03162 µM): 0.869
relative viability (EBC-1; first compound 0.3162 µM): 0.859
relative viability (NCI-H1437; first compound 0.01 µM): 0.949
relative viability (NCI-H1437; first compound 0.03162 µM): 1.15
relative viability (NCI-H1437; first compound 0.3162 µM): 1.06

COc1cc(N2CCC(C(N)=O)CC2)ccc1Nc1nc(N)c(Cl)c(Nc2ccccc2S(=O)(=O)C(C)C)n1 [HG-5-88-01] + CC(C)C[C@H](NC(=O)[C@H](Cc1ccccc1)NC(=O)c1cnccn1)B(O)O [Bortezomib] (partner 0.002 µM)
relative viability (NCI-H1703; first compound 0.04 µM): 0.263
relative viability (NCI-H1703; first compound 0.1265 µM): 0.42
relative viability (NCI-H1703; first compound 0.4 µM): 0.384
relative viability (NCI-H1703; first compound 1.265 µM): 0.312
relative viability (NCI-H1703; first compound 4 µM): 0.239
relative viability (IA-LM; first compound 0.04 µM): 0.835
relative viability (IA-LM; first compound 0.1265 µM): 0.849
relative viability (IA-LM; first compound 0.4 µM): 0.724
relative viability (IA-LM; first compound 1.265 µM): 0.812
relative viability (IA-LM; first compound 4 µM): 0.666
relative viability (NCI-H1299; first compound 0.04 µM): 1.02
relative viability (NCI-H1299; first compound 0.1265 µM): 1.02
relative viability (NCI-H1299; first compound 0.4 µM): 1.03
relative viability (NCI-H1299; first compound 1.265 µM): 1.04
relative viability (NCI-H1299; first compound 4 µM): 1.04
relative viability (Calu-6; first compound 0.04 µM): 1.03
relative viability (Calu-6; first compound 0.1265 µM): 0.998
relative viability (Calu-6; first compound 0.4 µM): 0.978
relative viability (Calu-6; first compound 1.265 µM): 0.925
relative viability (Calu-6; first compound 4 µM): 0.841
relative viability (EBC-1; first compound 0.04 µM): 0.567
relative viability (EBC-1; first compound 0.1265 µM): 0.624
relative viability (EBC-1; first compound 0.4 µM): 0.549
relative viability (EBC-1; first compound 1.265 µM): 0.474
relative viability (EBC-1; first compound 4 µM): 0.241
relative viability (NCI-H1437; first compound 0.04 µM): 0.491
relative viability (NCI-H1437; first compound 0.1265 µM): 0.477
relative viability (NCI-H1437; first compound 0.4 µM): 0.539
relative viability (NCI-H1437; first compound 1.265 µM): 0.401
relative viability (NCI-H1437; first compound 4 µM): 0.263

Clc1ccc(Nc2nnc(Cc3ccncc3)c3ccccc23)cc1 [Vatalanib] + CC(C)C[C@H](NC(=O)[C@H](Cc1ccccc1)NC(=O)c1cnccn1)B(O)O [Bortezomib] (partner 0.002 µM)
relative viability (NCI-H1703; first compound 0.04 µM): 0.464
relative viability (NCI-H1703; first compound 0.4 µM): 0.558
relative viability (NCI-H1703; first compound 1.265 µM): 0.237
relative viability (NCI-H1703; first compound 4 µM): 0.21
relative viability (IA-LM; first compound 0.04 µM): 0.963
relative viability (IA-LM; first compound 0.1265 µM): 0.955
relative viability (IA-LM; first compound 0.4 µM): 0.91
relative viability (IA-LM; first compound 1.265 µM): 0.763
relative viability (IA-LM; first compound 4 µM): 0.871
relative viability (NCI-H1299; first compound 0.04 µM): 1.02
relative viability (NCI-H1299; first compound 0.1265 µM): 1.06
relative viability (NCI-H1299; first compound 0.4 µM): 1
relative viability (NCI-H1299; first compound 1.265 µM): 1.04
relative viability (NCI-H1299; first compound 4 µM): 1.02
relative viability (Calu-6; first compound 0.04 µM): 1.07
relative viability (Calu-6; first compound 0.1265 µM): 0.991
relative viability (Calu-6; first compound 0.4 µM): 1.18
relative viability (Calu-6; first compound 1.265 µM): 0.911
relative viability (Calu-6; first compound 4 µM): 1.1
relative viability (EBC-1; first compound 0.04 µM): 0.489
relative viability (EBC-1; first compound 0.1265 µM): 0.498
relative viability (EBC-1; first compound 0.4 µM): 0.807
relative viability (EBC-1; first compound 1.265 µM): 0.519
relative viability (EBC-1; first compound 4 µM): 0.524
relative viability (NCI-H1437; first compound 0.04 µM): 0.57
relative viability (NCI-H1437; first compound 0.1265 µM): 0.577
relative viability (NCI-H1437; first compound 0.4 µM): 0.507
relative viability (NCI-H1437; first compound 1.265 µM): 0.445
relative viability (NCI-H1437; first compound 4 µM): 0.495
